Among the data in ChEMBL document CHEMBL1124848, “Monomethyl ether derivatives of 7,8-dihydroxy- and 8,9-dihydroxy-4-n-propyl-1,2,3,4,4a,5,6,10b-octahydrobenzo[f]quinolines as possible products of metabolism by catechol-O-methyltransferase” (1990) are inhibition in vivo values, retold here.

Assay [1] is described as follows: Evaluated for its effect in the cat cardioaccelerator nerve assay at the dose of 300 ug/kg. Format: functional. The following applies: Felis catus.
The nature of assay [2]: Evaluated for its effect in the cat cardioaccelerator nerve assay at the dose of 0.0013 umol/kg. The assay is classed as functional. The following applies: Felis catus.

The structures appear in SMILES notation.

For orientation: inhibition in vivo means the relative decrease from the control value, in per cent. `CCCN1CCC[C@H]2c3cc(OC)c(O)cc3CC[C@@H]21` yielded an inhibition in vivo at 0.3 mg/kg in assay [1] of 50%.

In assay [2], `CCCN1CCC[C@H]2c3cc(O)c(O)cc3CC[C@@H]21` gave an inhibition in vivo at 0.0013 µmol/kg of 50%.
